From US12678477B2, “Antiviral peptoid compositions” (priority 2019, dated 2026)
Values joined by “and” are separate entries in the source; they are usually repeats but may differ in a detail not shown here. Equal entries are not always repeated.

Columns and labels:
HSV = details: acyclovir treatment, given orally; cited from earlier work
[1] = test system: SARS-CoV-2 Isolate USA-WA1/2020; assay: SARS-CoV-2 plaque assay in Vero E6 cells (virus pre-incubated with peptoid); format: cell-based; details: for % control: plaque count relative to control; for Count (plaques): virus-peptoid incubated two hours at 37° C., Vero E6

Molecule	reduction of transmission (HSV) [%]	% control ([1]; 5 μg/ml)	Count (plaques) ([1]; 5 μg/ml)	% control ([1]; 10 μg/ml)	Count (plaques) ([1]; 10 μg/ml)	% control ([1]; 20 μg/ml)	Count (plaques) ([1]; 20 μg/ml)	% control ([1]; 40 μg/ml) [%]	Count (plaques) ([1]; 40 μg/ml)
Nc1nc2c(ncn2COCCO)c(=O)[nH]1 [acyclovir]	50	–	–	–	–	–	–	–	–
H-(NLys-Nspe-Nspe)4-NH2 [MXB-001]	–	118.18% and 113.64%	52 and 50	100% and 118.18%	44 and 52	125%	55	104.55	46
H-((NLys-Nspe(p-Br)-Nspe(p-Br))2—NH2 [MXB-004]	–	86.36% and 102.27%	38 and 45	136.36% and 134.09%	60 and 59	54.55% and 56.82%	24 and 25	15.91	7
